Laboratory results: PMC11671526, “β-caryophyllene sensitizes hepatocellular carcinoma cells to chemotherapeutics and inhibits cell malignancy through targeting MAPK signaling pathway” (Frontiers in Pharmacology, 2024)

Test system: HepG2 cells
Assay: RNA-seq transcriptome analysis of differentially expressed genes
Assay type: cell-based, human
Settings: BCP vs control HepG2
Protocol: The quality and concentration of RNA were examined by MOPS RNA electrophoresis and Eppendorf BioSpectrometer. The transcriptome analysis was performed by BGI-Wuhan China. The RNA-seq dataset of this study is accessible in the Gene Expression Omnibus (GEO) with an access number of GSE276099. The sequence library for each sample was prepared using the BGISEQ-500 platform with a 50-bp single-end (SE50) format. […]2.2.1) was used to align the clean reads to the reference genome and alignment of the clean reads to the reference genes was carried out using Bowtie2 (v2.4.5) ([Langmead and Salzberg, 2012]; [Kim et al., 2015]). Gene expression levels were calculated by RSEM (v1.3.1) ([Li and Dewey, 2011]). Analysis of differential gene expression was performed using edgeR in the Bioconductor software package ([Robinson et al., 2010]). Using a standard protocol, the RNA samples were also examined by reverse transcription and quantitative polymerase chain reaction (RT-qPCR). In brief, for reverse transcription, total RNA (1 μg) and gDNA wiper Mix were incubated at 42°C for 2 min. The samples were immediately incubated with a master mix containing 10 pmol/μL of poly (dT) primers at 37°C for 15 min and 85°C for 5 s. To detect the expression of specific genes by qPCR analysis, gene-specific primers (shown in Supplementary Table S1) were mixed with the ChamQ Universal SYBER qPCR Master Mix and the reaction was conducted using the Roche Lightcycler 480. The GAPDH value was used to normalize the results of each gene. The RNA-seq data of BCP-treated HepG2 cells were screened for DEGs. Gene symbols were turned into Enterz ID using the org.Hs.eg.db Bio-conductor R package. The cluster profiler (v4.6.2) package was used to perform the Kyoto Encyclopedia of Genes and Genomes (KEGG) and Gene Ontology (GO) enrichment analyses ([Wu et al., 2021]). Following the Transcript per million (TPM) data of the dataset, the line chart, and heatmap were plotted using ggplot2 and pheatmap R packages, respectively.

C=C1CC/C=C(\C)CC[C@@H]2[C@@H]1CC2(C)C [BCP, β-caryophyllene]
logFC APOBEC3C (gene APOBEC3C, RNA-seq): -0.5856
change APOBEC3C (gene APOBEC3C, DEG direction): Down
logFC ARRB1 (gene ARRB1, RNA-seq): -0.7626
change ARRB1 (gene ARRB1, DEG direction): Down
logFC ATP9A (gene ATP9A, RNA-seq): 0.6507
change ATP9A (gene ATP9A, DEG direction): Up
logFC ATP11C (gene ATP11C, RNA-seq): -0.7847
change ATP11C (gene ATP11C, DEG direction): Down
logFC AXIN2 (gene AXIN2, RNA-seq): 0.6672
change AXIN2 (gene AXIN2, DEG direction): Up
logFC B4GALNT4 (gene B4GALNT4, RNA-seq): -0.5947
change B4GALNT4 (gene B4GALNT4, DEG direction): Down
logFC BACE2 (gene BACE2, RNA-seq): 0.7147
change BACE2 (gene BACE2, DEG direction): Up
logFC BICDL1 (gene BICDL1, RNA-seq): -0.8616
change BICDL1 (gene BICDL1, DEG direction): Down
logFC BIRC7 (gene BIRC7, RNA-seq): 0.7538
change BIRC7 (gene BIRC7, DEG direction): Up
logFC BIVM-ERCC5 (gene BIVM-ERCC5, RNA-seq): 0.699
change BIVM-ERCC5 (gene BIVM-ERCC5, DEG direction): Up
logFC BLCAP (gene BLCAP, RNA-seq): -0.6138
change BLCAP (gene BLCAP, DEG direction): Down
logFC BMP2 (gene BMP2, RNA-seq): 0.7686
change BMP2 (gene BMP2, DEG direction): Up
logFC BUB1B-PAK6 (gene BUB1B-PAK6, RNA-seq): -1.6183
change BUB1B-PAK6 (gene BUB1B-PAK6, DEG direction): Down
logFC C1orf198 (gene C1orf198, RNA-seq): 0.6
change C1orf198 (gene C1orf198, DEG direction): Up
logFC C1orf216 (gene C1orf216, RNA-seq): -0.8102
change C1orf216 (gene C1orf216, DEG direction): Down
logFC C3orf80 (gene C3orf80, RNA-seq): -1.174
change C3orf80 (gene C3orf80, DEG direction): Down
logFC C4B (gene C4B, RNA-seq): 2.54
change C4B (gene C4B, DEG direction): Up
logFC C11orf86 (gene C11orf86, RNA-seq): -1.473
change C11orf86 (gene C11orf86, DEG direction): Down
logFC C19orf71 (gene C19orf71, RNA-seq): 0.8161
change C19orf71 (gene C19orf71, DEG direction): Up
logFC CA5B (gene CA5B, RNA-seq): -1.2201
change CA5B (gene CA5B, DEG direction): Down
logFC CARD6 (gene CARD6, RNA-seq): -1.5314
change CARD6 (gene CARD6, DEG direction): Down
logFC CCDC24 (gene CCDC24, RNA-seq): 1.127
change CCDC24 (gene CCDC24, DEG direction): Up
logFC CCDC86 (gene CCDC86, RNA-seq): -0.7779
change CCDC86 (gene CCDC86, DEG direction): Down
logFC CCL2 (gene CCL2, RNA-seq): -1.48
change CCL2 (gene CCL2, DEG direction): Down
logFC CCL5 (gene CCL5, RNA-seq): -1.124
change CCL5 (gene CCL5, DEG direction): Down
logFC CCL26 (gene CCL26, RNA-seq): -1.513
change CCL26 (gene CCL26, DEG direction): Down
logFC CELF2 (gene CELF2, RNA-seq): 0.8875
change CELF2 (gene CELF2, DEG direction): Up
logFC CHST2 (gene CHST2, RNA-seq): -1.145
change CHST2 (gene CHST2, DEG direction): Down
logFC CKAP2L (gene CKAP2L, RNA-seq): 0.6857
change CKAP2L (gene CKAP2L, DEG direction): Up
logFC CLDN2 (gene CLDN2, RNA-seq): 1.355
change CLDN2 (gene CLDN2, DEG direction): Up
logFC CLIP2 (gene CLIP2, RNA-seq): -0.6426
change CLIP2 (gene CLIP2, DEG direction): Down
logFC CLK1 (gene CLK1, RNA-seq): 0.5953
change CLK1 (gene CLK1, DEG direction): Up
logFC CLTCL1 (gene CLTCL1, RNA-seq): 0.7125
change CLTCL1 (gene CLTCL1, DEG direction): Up
logFC COL1A1 (gene COL1A1, RNA-seq): 0.6324
change COL1A1 (gene COL1A1, DEG direction): Up
logFC COL4A1 (gene COL4A1, RNA-seq): 0.7663
change COL4A1 (gene COL4A1, DEG direction): Up
logFC COL7A1 (gene COL7A1, RNA-seq): 0.6003
change COL7A1 (gene COL7A1, DEG direction): Up
logFC CPM (gene CPM, RNA-seq): 0.6061
change CPM (gene CPM, DEG direction): Up
logFC CPS1 (gene CPS1, RNA-seq): 0.6121
change CPS1 (gene CPS1, DEG direction): Up
logFC CRABP2 (gene CRABP2, RNA-seq): -0.6843
change CRABP2 (gene CRABP2, DEG direction): Down
logFC CREB3L4 (gene CREB3L4, RNA-seq): 0.5981
change CREB3L4 (gene CREB3L4, DEG direction): Up
logFC CREG2 (gene CREG2, RNA-seq): 0.6638
change CREG2 (gene CREG2, DEG direction): Up
logFC CRELD1 (gene CRELD1, RNA-seq): 0.9439
change CRELD1 (gene CRELD1, DEG direction): Up
logFC CSRP2 (gene CSRP2, RNA-seq): 0.7909
change CSRP2 (gene CSRP2, DEG direction): Up
logFC CYP1A1 (gene CYP1A1, RNA-seq): -0.7093
change CYP1A1 (gene CYP1A1, DEG direction): Down
logFC CYP3A5 (gene CYP3A5, RNA-seq): -1.0618
change CYP3A5 (gene CYP3A5, DEG direction): Down
logFC CYP3A7 (gene CYP3A7, RNA-seq): -2.402
change CYP3A7 (gene CYP3A7, DEG direction): Down
logFC CYP11A1 (gene CYP11A1, RNA-seq): -1.306
change CYP11A1 (gene CYP11A1, DEG direction): Down
logFC CYP26B1 (gene CYP26B1, RNA-seq): -0.8298
change CYP26B1 (gene CYP26B1, DEG direction): Down
logFC DAAM1 (gene DAAM1, RNA-seq): -0.6083
change DAAM1 (gene DAAM1, DEG direction): Down
logFC DDIT3 (gene DDIT3, RNA-seq): 0.9459
change DDIT3 (gene DDIT3, DEG direction): Up
logFC DDR2 (gene DDR2, RNA-seq): 0.7117
change DDR2 (gene DDR2, DEG direction): Up
logFC DENND2D (gene DENND2D, RNA-seq): -1.958
change DENND2D (gene DENND2D, DEG direction): Down
logFC DEPDC1 (gene DEPDC1, RNA-seq): 0.5867
change DEPDC1 (gene DEPDC1, DEG direction): Up
logFC DGKD (gene DGKD, RNA-seq): 0.5855
change DGKD (gene DGKD, DEG direction): Up
logFC DLG2 (gene DLG2, RNA-seq): -1.169
change DLG2 (gene DLG2, DEG direction): Down
logFC DNER (gene DNER, RNA-seq): 1.171
change DNER (gene DNER, DEG direction): Up
logFC DOCK4 (gene DOCK4, RNA-seq): -0.9058
change DOCK4 (gene DOCK4, DEG direction): Down
logFC EFNB2 (gene EFNB2, RNA-seq): -0.688
change EFNB2 (gene EFNB2, DEG direction): Down
logFC EGLN3 (gene EGLN3, RNA-seq): -0.764
